The source of these data is PubChem BioAssay AID328 (DTP/NCI, 2004).

The experiment concerns BDF1 mice, P388 leukemia ip, median survival T/C. As to the kind of experiment: NCI In Vivo Anticancer Drug Screen. Data for tumor model P388 Leukemia (intraperitoneal) in B6D2F1 (BDF1) mice. To be noted: endpoint: median survival time, higher = longer survival. The method in brief:
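Each value expresses how treatment altered survival: treated-mouse outcome over vehicle-mouse outcome, both groups bearing the transplanted tumour.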

[1] abbreviates: dose: 50.0 mg/kg/injection, schedule: Q04DX003 (ip), vehicle: saline with Tween-80.
[2] abbreviates: dose: 100.0 mg/kg/injection, schedule: Q04DX003 (ip), vehicle: saline with Tween-80.
Setting [3] is: dose: 200.0 mg/kg/injection, schedule: Q04DX003 (ip), vehicle: saline with Tween-80.
Where [4] appears, read: dose: 12.5 mg/kg/injection, schedule: Q01DX009 (ip), vehicle: saline with Tween-80.
Setting [5] is: dose: 25.0 mg/kg/injection, schedule: Q01DX009 (ip), vehicle: saline with Tween-80.
The mark [6] stands for this setting: dose: 50.0 mg/kg/injection, schedule: Q01DX009 (ip), vehicle: saline with Tween-80.
[7] abbreviates: dose: 100.0 mg/kg/injection, schedule: Q01DX009 (ip), vehicle: saline with Tween-80.
Setting [8] is: dose: 200.0 mg/kg/injection, schedule: Q01DX009 (ip), vehicle: saline with Tween-80.
[9] abbreviates: dose: 100.0 mg/kg/injection, schedule: Q04DX003 (ip), vehicle: Klucel (hydroxypropylcellulose) (HPC).
[10] abbreviates: dose: 200.0 mg/kg/injection, schedule: Q01DX009 (ip), vehicle: Klucel (hydroxypropylcellulose) (HPC).
Setting [11] is: dose: 200.0 mg/kg/injection, schedule: Q04DX003 (ip), vehicle: Klucel (hydroxypropylcellulose) (HPC).
[12] abbreviates: dose: 400.0 mg/kg/injection, schedule: Q04DX003 (ip), vehicle: saline with Tween-80.

Molecules are shown by their SMILES. Where “and” joins values, the source holds several entries; their conditions need not be identical. Identical values can stand only once. Toxic doses and inconclusive results are not listed.

In the case of `CCOC(=O)c1c(NC(=O)C(F)(F)F)[nH]c(SSc2[nH]c(NC(=O)C(F)(F)F)c(C(=O)OCC)c2C(=O)OCC)c1C(=O)OCC`, the T/C by setting is: (dose: 1.0 mg/kg/injection, schedule: Q01DX009 (ip), vehicle: water) 111 % of control; (dose: 2.0 mg/kg/injection, schedule: Q01DX009 (ip), vehicle: water) 90 % of control; (dose: 4.0 mg/kg/injection, schedule: Q01DX009 (ip), vehicle: water) 104 % of control; (dose: 8.0 mg/kg/injection, schedule: Q01DX009 (ip), vehicle: water) 104 % of control; under setting [1], 106 % of control; under setting [2], 117 % of control. For the same molecule, under setting [3], the T/C was 106 % of control.

`CCNc1nc2ncnc(NCC)c2[nH]1`: the T/C (dose: 3.13 mg/kg/injection, schedule: Q01DX009 (ip), vehicle: saline with Tween-80) was 94 % of control; the T/C (dose: 6.25 mg/kg/injection, schedule: Q01DX009 (ip), vehicle: saline with Tween-80) was 103 % of control; the T/C under setting [4] was 100 % of control; the T/C under setting [5] was 101 % of control.

Turning to `CCCCCCC(O)CCc1ccccc1` (centres undefined), the T/C was 100 % of control (dose: 100.0 mg/kg/injection, schedule: Q01DX001 (ip), vehicle: Klucel (hydroxypropylcellulose) (HPC)); 95 % of control (dose: 200.0 mg/kg/injection, schedule: Q01DX001 (ip), vehicle: Klucel (hydroxypropylcellulose) (HPC)); 104 % of control (dose: 400.0 mg/kg/injection, schedule: Q01DX001 (ip), vehicle: Klucel (hydroxypropylcellulose) (HPC)).

For `O=C(CNC(=O)Nc1ccc(C2=NCCN2)cc1)Nc1ccc(C2=NCCN2)cc1`, the T/C under setting [4] was 104 % of control; the T/C (dose: 12.5 mg/kg/injection, schedule: Q04DX003 (ip), vehicle: saline with Tween-80) is 100 % of control; the T/C (dose: 22.0 mg/kg/injection, schedule: Q01DX009 (ip), vehicle: saline with Tween-80) was 100 % of control; the T/C under setting [5] was 120 % of control; the T/C (dose: 25.0 mg/kg/injection, schedule: Q04DX003 (ip), vehicle: saline with Tween-80) was 118 % of control; the T/C (dose: 33.0 mg/kg/injection, schedule: Q01DX009 (ip), vehicle: saline with Tween-80) is 114 % of control. The T/C is, setting by setting: under setting [6], 166 % of control; under setting [1], 109 % of control; (dose: 75.0 mg/kg/injection, schedule: Q01DX009 (ip), vehicle: saline with Tween-80) 153 % of control.

Turning to `CN=S(=O)(OCC1CCC1COS(=O)(=NC)c1ccc(C)cc1)c1ccc(C)cc1` (centres undefined), the T/C is 109 % of control under setting [4]; 93 % of control (dose: 12.5 mg/kg/injection, schedule: Q01DX009 (ip), vehicle: saline); 100 % of control under setting [5]; 93 % of control (dose: 25.0 mg/kg/injection, schedule: Q01DX009 (ip), vehicle: saline); 90 % of control and 120 % of control under setting [6]; 90 % of control (dose: 50.0 mg/kg/injection, schedule: Q01DX009 (ip), vehicle: saline). Also, the T/C is, setting by setting: under setting [7], 107 % of control and 114 % of control; (dose: 100.0 mg/kg/injection, schedule: Q01DX009 (ip), vehicle: saline) 93 % of control; under setting [8], 116 % of control.

With `CP(c1ccccc1)c1ccccc1`, the T/C (dose: 50.0 mg/kg/injection, schedule: Q01DX009 (ip), vehicle: Klucel (hydroxypropylcellulose) (HPC)) was 109 % of control; the T/C (dose: 50.0 mg/kg/injection, schedule: Q04DX003 (ip), vehicle: Klucel (hydroxypropylcellulose) (HPC)) was 113 % of control; the T/C under setting [9] is 113 % of control; the T/C (dose: 133.0 mg/kg/injection, schedule: Q01DX009 (ip), vehicle: Klucel (hydroxypropylcellulose) (HPC)) is 100 % of control; the T/C under setting [10] is 107 % of control; the T/C under setting [11] is 104 % of control. Where the note is “dose: 300.0 mg/kg/injection, schedule: Q01DX009 (ip), vehicle: Klucel (hydroxypropylcellulose) (HPC)”, the T/C is 123 % of control.

For `CC1=CC23C(=O)[C@@H](C=C(COC(=O)c4ccccc4)[C@@H](O)[C@]2(O)[C@H]1OC(=O)c1ccccc1)[C@H]1[C@@H](C[C@H]3C)C1(C)C`, the T/C (dose: 7.0 micrograms/kg/injection, schedule: Q01DX009 (ip), vehicle: saline with Tween-80) was 197 % of control; the T/C (dose: 8.0 micrograms/kg/injection, schedule: Q01DX009 (ip), vehicle: saline + alcohol) is 110 % of control; the T/C (dose: 11.0 micrograms/kg/injection, schedule: Q01DX009 (ip), vehicle: saline with Tween-80) was 107 % of control; the T/C (dose: 13.0 micrograms/kg/injection, schedule: Q01DX009 (ip), vehicle: saline + alcohol) was 108 % of control; the T/C (dose: 19.0 micrograms/kg/injection, schedule: Q01DX009 (ip), vehicle: saline with Tween-80) was 113 % of control; the T/C (dose: 21.0 micrograms/kg/injection, schedule: Q01DX009 (ip), vehicle: saline + alcohol) is 110 % of control. Further, the T/C reads like this: (dose: 31.0 micrograms/kg/injection, schedule: Q01DX009 (ip), vehicle: saline with Tween-80) 113 % of control; (dose: 35.0 micrograms/kg/injection, schedule: Q01DX009 (ip), vehicle: saline + alcohol) 110 % of control; (dose: 52.0 micrograms/kg/injection, schedule: Q01DX009 (ip), vehicle: saline with Tween-80) 124 % of control; (dose: 59.0 micrograms/kg/injection, schedule: Q01DX009 (ip), vehicle: saline + alcohol) 107 % of control; (dose: 86.0 micrograms/kg/injection, schedule: Q01DX009 (ip), vehicle: saline with Tween-80) 109 % of control; (dose: 98.0 micrograms/kg/injection, schedule: Q01DX009 (ip), vehicle: saline + alcohol) 100 % of control. Moreover, the T/C is 113 % of control (dose: 144.0 micrograms/kg/injection, schedule: Q01DX009 (ip), vehicle: saline with Tween-80) and 157 % of control (dose: 240.0 micrograms/kg/injection, schedule: Q01DX009 (ip), vehicle: saline with Tween-80).

In the case of `CC(O)CC1CCCCN1O` (centres undefined), the T/C reads like this: (dose: 100.0 mg/kg/injection, schedule: Q04DX002 (ip), vehicle: saline with Tween-80) 110 % of control; (dose: 200.0 mg/kg/injection, schedule: Q04DX002 (ip), vehicle: saline with Tween-80) 101 % of control; (dose: 400.0 mg/kg/injection, schedule: Q04DX002 (ip), vehicle: saline with Tween-80) 100 % of control.

Take `O=C(OC1COC(Br)C(OC(=O)c2ccccc2)C1OC(=O)c1ccccc1)c1ccccc1` (centres undefined): the T/C is 100 % of control under setting [9]; 95 % of control under setting [11]; 100 % of control (dose: 400.0 mg/kg/injection, schedule: Q04DX003 (ip), vehicle: Klucel (hydroxypropylcellulose) (HPC)).

For `CN(C)S(=O)(=O)c1ccccc1C(O)(c1ccccc1)c1ccccc1`, the T/C is 99 % of control under setting [2], 116 % of control under setting [3] and 91 % of control under setting [12].

With `CS(=O)(=O)N(c1ccccc1[N+](=O)[O-])S(C)(=O)=O`, the T/C by setting is: under setting [7], 109 % of control; under setting [2], 87 % of control; under setting [8], 100 % of control; under setting [3], 100 % of control; (dose: 400.0 mg/kg/injection, schedule: Q01DX009 (ip), vehicle: saline with Tween-80) 104 % of control; under setting [12], 104 % of control.

`COC(=O)c1cc(Cl)cc(C(=O)OC)c1`: the T/C under setting [2] is 100 % of control, the T/C under setting [3] is 90 % of control and the T/C under setting [12] is 95 % of control.

On to `C/C=C(\CC)C(=O)NC(N)=O`, for which the T/C was 95 % of control (dose: 100.0 mg/kg/injection, schedule: Q01DX009 (ip), vehicle: Klucel (hydroxypropylcellulose) (HPC)); 100 % of control under setting [10]; 122 % of control (dose: 400.0 mg/kg/injection, schedule: Q01DX009 (ip), vehicle: Klucel (hydroxypropylcellulose) (HPC)).

For the molecule `Nc1cc(Cl)c(O)c(Cl)c1`, the T/C is 100 % of control (dose: 50.0 mg/kg/injection, schedule: Q04DX003 (ip), vehicle: saline); 100 % of control (dose: 100.0 mg/kg/injection, schedule: Q04DX003 (ip), vehicle: saline); 95 % of control (dose: 200.0 mg/kg/injection, schedule: Q04DX003 (ip), vehicle: saline).

Regarding `COc1ccc(/C=C/c2ccc3ccccc3[n+]2C)cc1OC`, the T/C (dose: 18.75 mg/kg/injection, schedule: Q01DX009 (ip), vehicle: saline) was 150 % of control and the T/C (dose: 37.5 mg/kg/injection, schedule: Q01DX009 (ip), vehicle: saline) is 160 % of control.
